Data as given in patent publication US20140213632A1, “HCV Combination Therapy” (Stella Aps, priority 2011, published 2014).
Where two headings read alike, the source gives them in different places.

Legend:
Huh-luc/neo-ET cells = system: Huh-luc/neo-ET cells
Method: Eight dilutions of non-transfected antimiR oligonucleotide (bracketing the calculated EC50) were evaluated in triplicate on duplicate sets of three plates with five dilutions of each of the control compounds (bracketing the calculated EC50). One set of plates was used for the determination of cellular toxicity and the other set of plates was used for the determination of anti-viral efficacy. The efficacy and toxicity results was quantified with firefly luciferase activity and XTT dye reduction, respectively, and the results of the assay is imported into the Prichard and Shipman MacSynergy II software program. […] The expected level of activity at each of the concentration data points was compared to the experimentally determined antiviral activity in the assay. The expected activity was subtracted from the realized activity, yielding a negative, zero or positive value. […]
The cells were treated with trypsin and enumerated by staining with trypan blue and seeded into 96-well tissue culture plates at a cell culture density 5.0×10^3 cells per well in a volume of 85 f.IL per well and incubated at […] in an environment of 5% CO2 for 24 hours. […] Following incubation, the plates were assessed for anti-HCV activity by measurement of luciferase reporter activity and cellular cytotoxicity by XTT staining.

[1] = system: HCV genotype Ib replicon in Huh-luc/neo-ET cells; format: cell-based, HCV genotype 1b; settings: for interaction: SPC3649 with 2-methyl cytidine
Method: The anti-viral efficacy and cellular toxicity of non-transfected antimiR oligonucleotide in combination with approved and experimental anti-HCV therapeutics (e.g. BMS-790052) (or other NS5A inhibitors), was determined in the reporter cell line Huh-luc/neo-ET. This cell line harbors the persistently replicating I389luc-ubi-neo/NS3-37ET replicon containing the firefly luciferase gene-ubiquitin-neomycin phosphotransferase fusion protein and EMCV IRES driven NS3-5B HCV coding sequences containing the ET tissue culture adaptive mutations (E1202G, T1208I, and K1846T). Eight dilutions of non-transfected antimiR oligonucleotide (bracketing the calculated EC50) were evaluated in triplicate on duplicate sets of three plates with five dilutions of each of the control compounds (bracketing the calculated EC50). One set of plates was used for the determination of cellular toxicity and the other set of plates was used for the determination of anti-viral efficacy. The efficacy and toxicity results was quantified with firefly luciferase activity and XTT dye reduction, respectively, and the results of the assay is imported into the Prichard and Shipman MacSynergy II software program. The MacSynergy II analysis includes calculation of the dose response of the two (or more) compounds when used alone followed by calculation of the expected additive level of antiviral inhibition or toxicity when the compounds are used together based on the individual dose response curves. The expected level of activity at each of the concentration data points was compared to the experimentally determined antiviral activity in the assay. The expected activity was subtracted from the realized activity, yielding a negative, zero or positive value. […]
The combination antiviral assays were performed using the reporter cell line Huh-luc/neo-ET, which contains a bicistronic HCV genotype Ib replicon. Combination data were analyzed using MacSynergy II software at the 95%, confidence interval. […]

[2] = system: HCV genotype 1b replicon NS5B M423I; format: cell-based; settings: EC50 mutant / EC50 wild-type; mean of two experiments (individual values); 72 hours
Method: (§1) The objective of this study was to evaluate the in vitro antiviral activity of miravirsen (SPC3649) against wild-type HCV genotype Ib replicon and NS3, NS5A and NS5B drug-resistant HCV genotype 1 b replicons in transient transfection assays utilizing Huh 7 cells. Method: The in vitro antiviral of miravirsen was evaluated against wild-type HCV genotype 1 b replicon and HCV genotype 1 b replicons constructed to contain key amino acid substitutions in NS3 protease (A156T, R155K), NS5B polymerase (S282T, M423I) and NS5A protein (Y93H) in transient transfection assays utilizing Huh 7 cells. […] Huh 7 cells were transfected with either the wild-type or the mutant RNA constructs by electroporation. Luciferase activity was measured 72 hours after compound treatment and EC50 values determined from dose-response curves. Fold resistance was expressed as the ratio of the EC50 for mutant HCV replicon to the EC50 for wild-type HCV replicon.
(§2) The in vitro antiviral of miravirsen was evaluated against wild-type HCV genotype Ib replicon and HCV replicons constructed to contain key amino acid substitutions in NS3 protease (A156T, R155K), NS5B polymerase (S282T, M423I) and NS5A protein (Y93H) in transient transfection assays. […] Huh 7 cells were transfected with either the wild type or the mutant RNA constructs by electroporation. Luciferase activity was measured 72 hours after compound treatment and EC50 values determined from dose-response curves. Fold resistance was expressed as the ratio of the EC50 for mutant HCV replicon to the EC50 for wild-type HCV replicon. Results are expressed as the mean of two individual experiments. In an initial set of experiments, the standard protocol was modified by adding compounds 24 hours after electroporation. […] In a third experiment cells were pretreated with miravirsen for 24 hours before electroporation with wild-type RNA constructs to determine if preincubation could result in increased miravirsen antiviral activity.

[3] = system: HCV genotype 1b replicon NS5B S282T; format: cell-based; settings: EC50 mutant / EC50 wild-type; mean of two experiments (individual values); 72 hours
Method: as §1, §2

[4] = system: HCV genotype 1b replicon NS5A Y93H; format: cell-based; settings: EC50 mutant / EC50 wild-type; mean of two experiments (individual values); 72 hours
Method: as §1, §2

[5] = system: HCV genotype 1b replicon NS3 R155K; format: cell-based; settings: EC50 mutant / EC50 wild-type; mean of two experiments (individual values); 72 hours
Method: as §1, §2

[6] = system: HCV genotype 1b replicon NS3 A156T; format: cell-based; settings: EC50 mutant / EC50 wild-type; mean of two experiments (individual values); 72 hours
Method: as §1, §2

5′-Ts·^oc^·sAs·^otsa^·s^mCs·^oTs·^oa^·stsAs·^otsGs·^oa^·s^mCs·^oA·^o-3′ [SPC4729]
Cytotoxicity, Synergy vol (Huh-luc/neo-ET cells): 0.00/−44.3 μM^2%
Cytotoxicity, Antag Vol (Huh-luc/neo-ET cells; Ribavirin plus the named compound, 95% confidence level): 0.00/−44.3 μM^2%
overall interaction (antiviral) ([1]; ribavirin plus the named compound): antagonistic

5′-^mCs^ocsAs^otstsGs^oTs^ocsas^mCs^oas^mCs^ots^mCs^omCo-3′ (CCATTGTCACACTCC; all phosphorothioate, sugars by position and methylation of C not given here; further chemistry not fully specified) [miravirsen]
Fold Resistance NS5B M423I [2]: 1.7 (2.3, 1.0) fold
Fold Resistance NS5B S282T [3]: 1.9 (2.6, 1.1) fold
Fold Resistance NS5A Y93H [4]: 0.9 (0.8, 0.9) fold
Fold Resistance NS3 R155K [5]: 1.2 (1.9, 0.4) fold
Fold Resistance NS3 A156T [6]: 1.0 (1.4, 0.5) fold

C[C@@]1(O)[C@H](O)[C@@H](CO)O[C@H]1n1ccc(N)nc1=O [2′-C-Methylcytidine]
interaction ([1]; third replicate): slightly antagonistic interaction
interaction ([1]; two of the assay replicates): positive interactions

CCC[C@H](NC(=O)[C@@H]1[C@H]2CCC[C@H]2CN1C(=O)[C@@H](NC(=O)[C@@H](NC(=O)c1cnccn1)C1CCCCC1)C(C)(C)C)C(=O)C(=O)NC1CC1 [Telaprevir, (1S,3aR,6aS)-2-[(2S)-2-[[(2S)-2-Cyclohexyl-2-(pyrazine-2-carbonylamino)acetyl]amino]-3,3-dimethylbutanoyl]-N-[(3S)-1-(cyclopropylamino)-1,2-dioxohexan-3-yl]-3,3a,4,5,6,6a-hexahydro-1H-cyclopenta[c]pyrrole-1-carboxamide]
Fold Resistance NS3 R155K [5]: 4.6 (5.0, 4.2) fold

CC(C)(C)C#Cc1cc(N(C(=O)[C@H]2CC[C@H](C)CC2)[C@H]2CC[C@H](O)CC2)c(C(=O)O)s1 [VX-222]
Fold Resistance NS5B M423I [2]: 4.4 (3.6, 5.2) fold
